Assay results published in publication PMC6412374, “Engineering of Antimicrobial Surfaces by Using Temporin Analogs to Tune the Biocidal/antiadhesive Effect” (Molecules, 2019).
Converted amounts (≈) assume the structure as drawn. Square brackets hold non-standard residues; d marks the D form. Ends that are not written are not given here. Peptide text beside a SMILES is read from it.

Tests used:
[1] = tested on: Listeria ivanovii (Li4pVS2); test: MBC, plating of MIC wells on agar; assay type: cell-based; settings: free peptide in solution; MIC well and 4 wells above plated on agar, overnight; lowest concentration with at least 99.99% decrease; triplicate
Procedure: (§1) Non-pathogenic bacteria Listeria ivanovii Li4pVS2 (Courtesy of Prof. J.-M. Berjeaud, Poitiers University, Poitiers, France) were used to investigate the antibacterial activity of the modified surfaces. Bacterial suspensions were prepared from frozen cultures incubated overnight (37 °C under agitation at 250 rpm) in brain heart infusion (BHI) broth (BD Difco, Franklin Lakes, NJ, USA). After centrifugation at 10,000× g for 5 min and elimination of the liquid phase (supernatant) the bacteria were redisposed in NaCl 0.9% solution up to a concentration of to 2 × 10^6 colony forming unity (CFU) per mL, verified by measuring the OD620nm = 0.02.
(§2) MIC values of temporin analogs were determined using a liquid growth inhibition assay. An exponential-phase bacterial culture of Listeria ivanovii was diluted in BHI broth to an OD of 0.02 (2 × 10^6 CFU/mL). A volume of 100 μL of this bacterial suspension was mixed with 100 μL of 2-fold serial aqueous dilutions of each temporin (final concentrations from 0.78 to 100 µM). The bacterial growth was monitored by measuring the OD change during overnight incubation. MIC and MBC tests were carried out in triplicate with positive (0.7% formaldehyde) and negative (saline NaCl 0.9% solution) controls. […] The bacterial suspension corresponding to the MIC well and 4 wells above MIC were collected and deposited on agar plate in order to determine the minimal bactericidal concentration (MBC). The MBC is expressed as the lowest concentration for which a decrease of at least 99.99% is observed on agar plates after overnight incubation.

[2] = tested on: Listeria ivanovii (Li4pVS2); test: MIC, liquid growth inhibition assay of free temporins in solution; assay type: cell-based; settings: free peptide in solution; BHI broth, 2 × 10^6 CFU/mL, 2-fold serial dilutions, overnight incubation, OD read-out; lowest concentration that completely inhibits growth; triplicate
Procedure: as §1, §2

| Molecule | MBC [1] [µM] | MIC [2] [µM] |
| --- | --- | --- |
| FAKGIAGMAGKLF-NH2 [[A^2,6,9, K^3]SHa, [A^2,6,9, K^3]temporin-SHa] | >200 |  |
| FLKGIVGMLGKLF-NH2 [[K^3]SHa, [K^3]temporin-SHa] | 3.12 | 1.56 |
| FLSGIVGMLGKLF-NH2 [SHa, Temporin-SHa, reference compound] | 6 | 6 |
| CC[C@@H](C)[C@@H](NC(=O)CNC(=O)[C@@H](CCCCN)NC(=O)[C@@H](CC(C)C)NC(=O)[C@H](N)Cc1ccccc1)C(=O)N[C@@H](C(=O)NCC(=O)N[C@H](CCSC)C(=O)N[C@H](CC(C)C)C(=O)NCC(=O)N[C@H](CCCCN)C(=O)N[C@H](CC(C)C)C(=O)N[C@H](Cc1ccccc1)C(N)=O)C(C)C [D-[K^3]SHa, D-[K^3]temporin-SHa] (H-[dF][dL][dK]G[dI][dV]G[dM][dL]G[dK][dL][dF]-NH2; N-terminus assumed) | 3.12 (≈ 4.44 µg/mL) | 1.56 (≈ 2.22 µg/mL) |
| FAKGIAGMAGKLF [[A^2,6,9, K^3]SHa-COOH, [A^2,6,9, K^3]temporin-SHa-COOH] | 256 |  |
| FASGIAGMAGKLF-NH2 [[A^2,6,9]SHa, [A^2,6,9]temporin-SHa] | >200 |  |
| FLKGIVGMLGKLF [[K^3]SHa-COOH, [K^3]temporin-SHa-COOH] | 128 | 64 |
